# Source: patent US11214594B2, “Antimicrobial peptide having synergistic antibacterial effect with antibiotics on multidrug resistant bacteria, and use thereof” (priority 2016, dated 2022)
# Like-named read-outs stand apart in the source and are kept apart here. Where a SMILES comes first, the peptide text is derived from it. [ ]: non-standard residue; d: D form.
# Experiments:
# A. baumannii = test: MIC of antibiotic during combined treatment with antimicrobial peptide; format: cell-based, Acinetobacter baumannii; conditions: A. baumannii
# How it was run: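 MIC values for mixed peptide plus antibiotic solutions were measured in MH medium.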
# B. subtilis = test: microbe, parasite or virus in culture; format: cell-based, Bacillus subtilis
# How it was run: (§1)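 MIC read-out = lowest peptide level with no bacterial proliferation. Strains diluted in MH medium to 2×10^6 CFU; peptide twofold serial dilutions in MH added 1:1 in microtiter wells.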
# E. coli [1] = test: microbe, parasite or virus in culture; format: cell-based, Escherichia coli; conditions: 16 h
# How it was run: as §1
# MDREC 1229 [2] = test: microbe, parasite or virus in culture; format: cell-based, Escherichia coli
# How it was run: as §1
# MDREC 1229 [3] = test: MIC of antibiotic during combined treatment with antimicrobial peptide; format: cell-based, Escherichia coli
# How it was run: (§2)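 Antibiotic MIC came from antibiotic dilutions added to bacteria (2×10^6 CFU/ml, MH medium) already combined with peptide serially diluted 2:1 from its own MIC. Swapping the roles of the two agents gave the peptide MIC.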
# E. coli [4] = format: cell-based, Escherichia coli; conditions: E. coli
# How it was run: as §2
# MDREC 1229 [5] = format: cell-based, Escherichia coli
# How it was run: as §2
# [6] = combined with peptide at 4 μg/ml
# [7] = combined with peptide at 6 μg/ml
# [8] = combined with peptide at 8 μg/ml
# [9] = combined with peptide at 16 μg/ml
# [10] = combined with peptide at 32 μg/ml
# [11] = combined with peptide at 64 μg/ml
# [12] = peptide treatment concentration 1 μg/ml
# [13] = peptide treatment concentration 2 μg/ml
# [14] = peptide treatment concentration 4 μg/ml
# [15] = peptide treatment concentration 6 μg/ml
# [16] = peptide treatment concentration 8 μg/ml
# [17] = peptide treatment concentration 16 μg/ml
# [18] = peptide treatment concentration 32 μg/ml
# [19] = peptide treatment concentration 64 μg/ml
structure (smiles),measurement,setting,value
"CC[C@H](C)[C@H](NC(=O)[C@H](CCCCN)NC(=O)[C@H](Cc1c[nH]c2ccccc12)NC(=O)[C@@H](N)CCCNC(=N)N)C(=O)N[C@@H](Cc1ccccc1)C(=O)N[C@@H](CCCCN)C(=O)N[C@@H](CCCCN)C(=O)N[C@H](C(=O)N[C@H](CCCCN)C(=O)N[C@@H](CCCCN)C(=O)N[C@@H](CC(C)C)C(=O)N[C@@H](CC(C)C)C(=O)N[C@@H](Cc1c[nH]cn1)C(=O)N[C@@H](CO)C(=O)N[C@@H](Cc1ccccc1)C(=O)N[C@@H](CCCCN)C(=O)N[C@@H](CCCCN)C(=O)N[C@@H](Cc1ccccc1)C(N)=O)[C@@H](C)CC [PapMA-15, RWK IFK KIk KLL HSF KKF-NH2] (H-RWKIFKKI[dK]KLLHSFKKF-NH2; N-terminus assumed)","Antibiotic MIC, Linezolid",A. baumannii; [6],64 µg/mL
same,"Antibiotic MIC, Vancomycin",A. baumannii; [6],32 µg/mL
same,"Antibiotic MIC, Erythromycin",A. baumannii; [7],2 µg/mL
same,"Antibiotic MIC, Linezolid",A. baumannii; [7],32 µg/mL
same,"Antibiotic MIC, Vancomycin",A. baumannii; [7],16 µg/mL
same,"Antibiotic MIC, Erythromycin",A. baumannii; [8],0.5 µg/mL
same,"Antibiotic MIC, Linezolid",A. baumannii; [8],16 µg/mL
same,"Antibiotic MIC, Vancomycin",A. baumannii; [8],16 µg/mL
same,"Antibiotic MIC, Erythromycin",A. baumannii; [9],0.25 µg/mL
same,"Antibiotic MIC, Linezolid",A. baumannii; [9],2 µg/mL
same,"Antibiotic MIC, Vancomycin",A. baumannii; [9],8 µg/mL
same,"Antibiotic MIC, Erythromycin",A. baumannii; [10],0 µg/mL
same,"Antibiotic MIC, Linezolid",A. baumannii; [10],0 µg/mL
same,"Antibiotic MIC, Vancomycin",A. baumannii; [10],0 µg/mL
same,"Antibiotic MIC, Erythromycin",A. baumannii; [11],0 µg/mL
same,"Antibiotic MIC, Linezolid",A. baumannii; [11],0 µg/mL
same,"Antibiotic MIC, Vancomycin",A. baumannii; [11],0 µg/mL
same,Minimal inhibitory concentration MIC,B. subtilis,>128 µg/mL
same,Minimal inhibitory concentration MIC,E. coli [1],32 µg/mL
same,Minimal inhibitory concentration MIC,MDREC 1229 [2],32 µg/mL
same,"Peptide MIC, peptide alone",MDREC 1229 [2],32 µg/mL
same,"Antibiotic MIC, Erythromycin",MDREC 1229 [3]; [12],>128 µg/mL
same,"Antibiotic MIC, Linezolid",MDREC 1229 [3]; [12],>128 µg/mL
same,"Antibiotic MIC, Vancomycin",MDREC 1229 [3]; [12],>128 µg/mL
same,"Antibiotic MIC, Erythromycin",MDREC 1229 [3]; [13],32 µg/mL
same,"Antibiotic MIC, Linezolid",MDREC 1229 [3]; [13],128 µg/mL
same,"Antibiotic MIC, Vancomycin",MDREC 1229 [3]; [13],>128 µg/mL
same,"Antibiotic MIC, Erythromycin",MDREC 1229 [3]; [14],16 µg/mL
same,"Antibiotic MIC, Linezolid",MDREC 1229 [3]; [14],64 µg/mL
same,"Antibiotic MIC, Vancomycin",MDREC 1229 [3]; [14],>128 µg/mL
same,"Antibiotic MIC, Erythromycin",MDREC 1229 [3]; [15],8 µg/mL
same,"Antibiotic MIC, Linezolid",MDREC 1229 [3]; [15],64 µg/mL
same,"Antibiotic MIC, Vancomycin",MDREC 1229 [3]; [15],64 µg/mL
same,"Antibiotic MIC, Erythromycin",MDREC 1229 [3]; [16],4 µg/mL
same,"Antibiotic MIC, Linezolid",MDREC 1229 [3]; [16],32 µg/mL
same,"Antibiotic MIC, Vancomycin",MDREC 1229 [3]; [16],32 µg/mL
same,"Antibiotic MIC, Erythromycin",MDREC 1229 [3]; [17],1 µg/mL
same,"Antibiotic MIC, Linezolid",MDREC 1229 [3]; [17],16 µg/mL
same,"Antibiotic MIC, Vancomycin",MDREC 1229 [3]; [17],16 µg/mL
same,"Antibiotic MIC, Erythromycin",MDREC 1229 [3]; [18],0 µg/mL
same,"Antibiotic MIC, Linezolid",MDREC 1229 [3]; [18],0 µg/mL
same,"Antibiotic MIC, Vancomycin",MDREC 1229 [3]; [18],0 µg/mL
same,"Antibiotic MIC, Erythromycin",MDREC 1229 [3]; [19],0 µg/mL
same,"Antibiotic MIC, Linezolid",MDREC 1229 [3]; [19],0 µg/mL
same,"Antibiotic MIC, Vancomycin",MDREC 1229 [3]; [19],0 µg/mL
same,Peptide MIC,E. coli [4]; with Erythromycin […] (Conc./MIC 1),0 µg/mL
same,Peptide MIC,E. coli [4]; with Linezolid […] (Conc./MIC 1),0 µg/mL
same,Peptide MIC,E. coli [4]; with Vancomycin 1024 μg/ml (Conc./MIC 1),0 µg/mL
same,Peptide MIC during treatment with antibiotic,MDREC 1229 [5]; erythromycin 32 μg/ml (Conc./MIC 1/8),2 µg/mL
same,Peptide MIC during treatment with antibiotic,MDREC 1229 [5]; erythromycin 64 μg/ml (Conc./MIC 1/4),2 µg/mL
same,Peptide MIC during treatment with antibiotic,MDREC 1229 [5]; erythromycin […] (Conc./MIC 1),0 µg/mL
same,Peptide MIC during treatment with antibiotic,MDREC 1229 [5]; erythromycin […] (Conc./MIC 1/2),2 µg/mL
same,Peptide MIC during treatment with antibiotic,MDREC 1229 [5]; linezolid 64 μg/ml (Conc./MIC 1/8),4 µg/mL
same,Peptide MIC during treatment with antibiotic,MDREC 1229 [5]; linezolid 512 μg/ml (Conc./MIC 1),0 µg/mL
same,Peptide MIC during treatment with antibiotic,MDREC 1229 [5]; linezolid […] (Conc./MIC 1/2),1 µg/mL
same,Peptide MIC during treatment with antibiotic,MDREC 1229 [5]; linezolid […] (Conc./MIC 1/4),2 µg/mL
same,Peptide MIC during treatment with antibiotic,MDREC 1229 [5]; vancomycin 512 μg/ml (Conc./MIC 1/2),2 µg/mL
same,Peptide MIC during treatment with antibiotic,MDREC 1229 [5]; vancomycin 1024 μg/ml (Conc./MIC 1),1 µg/mL
same,Peptide MIC during treatment with antibiotic,MDREC 1229 [5]; vancomycin […] (Conc./MIC 1/4),4 µg/mL
same,Peptide MIC during treatment with antibiotic,MDREC 1229 [5]; vancomycin […] (Conc./MIC 1/8),8 µg/mL
